# In patent US8158607B2, “Crystalline form of lamivudine” (Lupin Limited, priority 2006, dated 2012):
# What was measured:
# [1] = Tablet dissolution in 0.1 N HCl, paddle; format: physicochemical; details: combination tablet, 50 rpm, 900 ml
# [2] = Bulk density and tap density of crystal forms; format: physicochemical
# From the text: The novel crystalline hemihydrate form (form III) of Lamivudine has better flow property and bulk density, which are important parameters for formulation (Table I). [table]
# [3] = Flow property (angle of repose); format: physicochemical; details: procedure of Lachman et al., page 317
# [4] = Polymorphic stability when slurried in water; format: physicochemical; details: slurried in water at ambient temperature for 24 to 48 hours
# Experimental: A suspension of the Lamivudine form-II (5.0 gm) in water (5.0 ml) was stirred at 25° C. for 48 hours. The suspension was cooled and stirred at 10° C. for one hour. The product was filtered and then dried under vacuum at 45° C. for 24 hours. Yield=4.5 gms
# A suspension of the Lamivudine form-I (2.0 gm) in water (2.0 ml) was stirred at 25° C. for 24 hours. The suspension was cooled and stirred at 10° C. for one hour. The product was filtered and then dried under vacuum at 45° C. for 24 hours. Yield=1.6 gms
# [5] = background, U.S. Pat. No. 5,905,082; cited from earlier work
# [6] = Storage stability at 40±2° C. RH 75±5%; format: physicochemical; details: stored at 40±2° C. RH 75±5%
# [7] = Bioavailability; format: in vivo; details: compared with known forms
# [8] = Polymorphic stability during milling; format: physicochemical
SMILES,Dissolution (%) ([1]; 5 minutes),Dissolution (%) ([1]; 10 minutes),Dissolution (%) ([1]; 20 minutes),Dissolution (%) ([1]; 30 minutes),Dissolution (%) ([1]; 40 minutes),Bulk Density [2],Tap Density [2],Flow Property (Angle of Repose) [3],Change of crystal form when slurried in water [4],Change of crystal form during milling and formulation operation [5],Stability on storage [6],Bioavailability [7],Change in crystal structure during milling [8]
Cc1cn([C@H]2C[C@H](N=[N+]=[N-])[C@@H](CO)O2)c(=O)[nH]c1=O [Zidovudine],81.1%,87.8%,95.2%,100.4%,101.5%,–,–,–,–,–,–,–,–
"Nc1cc[n+](C2CSC(CO)O2)c(=O)[nH]1 (stereo not drawn) [Lamivudine, (2R-cis)-4-amino-1-[2-(hydroxymethyl)-1,3-oxathiolan-5-yl]-2(1H)-pyrimidinone]",80.9%,86.2%,92.0%,96.0%,96.7%,–,–,–,–,–,–,–,–
"Nc1cc[n+](C2CSC(CO)O2)c(=O)[nH]1 (stereo not drawn) [Form I, (2R-cis)-4-amino-1-[2-(hydroxymethyl)-1,3-oxathiolan-5-yl]-2(1H)-pyrimidinone]",–,–,–,–,–,0.46 gm/cc,0.60 gm/cc,33.66°,get converted to Form III,converts to form II,–,–,–
"Nc1cc[n+](C2CSC(CO)O2)c(=O)[nH]1 (stereo not drawn) [Form III, (2R-cis)-4-amino-1-[2-(hydroxymethyl)-1,3-oxathiolan-5-yl]-2(1H)-pyrimidinone]",–,–,–,–,–,0.64 gm/cc,0.83 gm/cc,32.00°,–,–,stable for more than three months,comparable bioavailability,does not undergo any change in crystal structure during milling
"Nc1cc[n+](C2CSC(CO)O2)c(=O)[nH]1 (stereo not drawn) [Form II, (2R-cis)-4-amino-1-[2-(hydroxymethyl)-1,3-oxathiolan-5-yl]-2(1H)-pyrimidinone]",–,–,–,–,–,0.38 gm/cc,0.55 gm/cc,32.00°,get converted to Form III,–,–,–,–
